Assay results from ChEMBL document CHEMBL1149954, “Synthesis of methyl -sialosides N-substituted with large alkanoyl groups, and investigation of their inhibition of agglutination of erythrocytes by influenza A virus” (Bioorg Med Chem Lett, 1993).

Legend:
[1] = Compound was tested for its ability to displace a fluorescent ligand from the active site of bromelaine-cleaved hemagglutininin (BHA); design: species or system Gallus gallus
[2] = Compound was tested for the inhibition of hemagglutinination when incorporated into liposomes (Hemagglutinination inhibition (HAI) assay); no inhibition took place
[3] = species on record: Gallus gallus; assay: Compound was tested for its ability to displace a fluorescent ligand from the active site of bromelaine-cleaved hemagglutininin (BHA) at concentrations above 5 mM; no displacement was observed

`COC(=O)C1(OC)CC(O)C(NC(C)=O)C([C@H](O)[C@H](O)CO)O1` (stereo partly drawn) gave a Kd [1] of 2800 µM.
`CCCCCCCCCCCCCC(=O)NC1C(O)CC(OC)(C(=O)O)OC1[C@H](O)[C@H](O)CO` (stereo partly drawn) gave a Ki [2] of over 1000 µM.
With `CCCCCCCC(=O)NC1C(O)CC(OC)(C(=O)O)OC1[C@H](O)[C@H](O)CO` (stereo partly drawn) the Binding affinity [3] was “no displacement was observed”.
